Columns and labels:
[1] = test system: Tte class-I preQ1 riboswitch aptamer, U22Ap variant (RNA, riboswitch, 2-aminopurine at 22 (replacing U22)) CUGGGUCGCAGUAACCCCAGUUAACAAAACAAG; assay: 2-aminopurine fluorescence titration; settings: 100 mM KCl, 2 mM MgCl2; 50 mM MOPS, pH 7.5, 293 K; 0.5 µM RNA; apparent
[2] = test system: Spn class-II preQ1 riboswitch aptamer, A11Ap variant (RNA, riboswitch, 2-aminopurine at 11 (replacing A11)) CUUGGUGCUUAGCUUCUUUCACCAAGCAUAUUACACGCGGAUAACCGCCAAAGGA; assay: 2-aminopurine fluorescence titration; settings: 100 mM KCl, 2 mM MgCl2; 50 mM MOPS, pH 7.5, 293 K; 0.5 µM RNA; apparent

| KD [1] [nM] | KD [2] [nM] | Compound |
| --- | --- | --- |
| 922 | 4580 | COCCOCCOCCNCc1c[nH]c2nc(N)[nH]c(=O)c12 |
| 167 | 203 | [N-]=[N+]=NCCOCCNCc1c[nH]c2nc(N)[nH]c(=O)c12 |
| 88 | 432 | [N-]=[N+]=NCCCCNCc1c[nH]c2nc(N)[nH]c(=O)c12 |
| 30 | 254 | [N-]=[N+]=NCCCNCc1c[nH]c2nc(N)[nH]c(=O)c12 |

The next lines start with the molecule.

| Compound | KD [1] [nM] | KD [2] [nM] |
| --- | --- | --- |
| NCCCCNCc1c[nH]c2nc(N)[nH]c(=O)c12 | 41 | 148 |
| NCCCNCc1c[nH]c2nc(N)[nH]c(=O)c12 | 32 | 97 |
| NCc1c[nH]c2nc(N)[nH]c(=O)c12 | 51 | 430 |
| NCCCc1c[nH]c2nc(N)[nH]c(=O)c12 | 71 | 2830 |
| Nc1nc2[nH]cc(CNCCCCCNCc3c[nH]c4nc(N)[nH]c(=O)c34)c2c(=O)[nH]1 | 590 | 1030 |
